Results reported in ChEMBL document CHEMBL1795233, “The geranyl-modified tryptophan residue is crucial for ComXRO-E-2 pheromone biological activity” (Bioorg Med Chem Lett, 2011).
*1 amine or outer side, *2 acyl side, *3 side chain or, on linkers, in order; H or OH if unused. Where a SMILES comes first, the peptide text is derived from it. [ ]: non-standard residue; d: D form. X2 = CC(C)=CCC/C(C)=C/CC/C(C)=C/C[C@]12C[C@@H](C(=O)[*:2])N([*:1])[C@H]1Nc1ccccc12; X4 = CC(C)=CCC/C(C)=C/C[C@]12C[C@@H](C(=O)[*:2])N([*:1])[C@H]1Nc1ccccc12; X1 = C/C(=C\C[C@]12C[C@@H](C(=O)[*:2])N([*:1])[C@H]1Nc1ccccc12)CCCC(C)C; X3 = CC(C)=CC[C@]12C[C@@H](C(=O)[*:2])N([*:1])[C@H]1Nc1ccccc12

Experiments:
[1] = Effect on quorum sensing-mediated genetic competence in Bacillus subtilis expressing srfA-lacZ fusion assessed as concentration required to show same activity at EC50 of ComXRO-E-2 pheromone after 5 hrs by beta-galactosidase assay
[2] = tested on: Bacillus subtilis; test: Effect on quorum sensing-mediated genetic competence in Bacillus subtilis expressing srfA-lacZ fusion assessed as maximum activity after 5 hrs by beta-galactosidase assay relative to ComXRO-E-2 pheromone
[3] = tested on: Bacillus subtilis; test: Effect on quorum sensing-mediated genetic competence in Bacillus subtilis expressing srfA-lacZ fusion assessed as concentration required to show same activity at EC25 of ComXRO-E-2 pheromone after 5 hrs by beta-galactosidase assay

SMILES	EC50 [1]	Emax [2]	EC25 [3]
CC(C)=CCC/C(C)=C/C[C@]12C[C@@H](C(=O)NCC(=O)O)N(C(=O)C(N)Cc3ccccc3)[C@H]1Nc1ccccc12 (single isomer, unassigned)	> 300 nM	40%	200 nM
CC(C)=CCC/C(C)=C/C[C@]12C[C@@H](C(N)=O)N(C(=O)c3ccccc3)[C@H]1Nc1ccccc12	> 300 nM	0%	> 300 nM
CC(C)=CCC/C(C)=C/C[C@]12C[C@@H](C(=O)N[C@@H](C)C(=O)O)N(C(=O)[C@@H](N)Cc3ccc(O)cc3)[C@H]1Nc1ccccc12	> 300 nM	25%	100 nM
CC[C@H](C)[C@H](NC(=O)CN)C(=O)N[C@@H](Cc1ccccc1)C(=O)N1[C@H]2Nc3ccccc3[C@@]2(C/C=C(\C)CC/C=C(\C)CCC=C(C)C)C[C@H]1C(=O)N[C@@H](CCC(=O)O)C(=O)N[C@@H](CCC(N)=O)C(=O)O (H-GIF[X2]EQ-OH)	> 300 nM	35%	20 nM
CC(C)=CCC/C(C)=C/C[C@]12C[C@@H](C(=O)N[C@@H](C)C(=O)O)N(C(=O)[C@H](C)N)[C@H]1Nc1ccccc12	> 300 nM	15%	> 300 nM
CC(C)=CCC/C(C)=C/C[C@]12C[C@@H](C(N)=O)N(C(=O)[C@@H](N)Cc3ccccc3)[C@H]1Nc1ccccc12	> 300 nM	35%	50 nM
COC(=O)[C@@H]1C[C@]2(C/C=C(\C)CCC=C(C)C)c3ccccc3N[C@@H]2N1C(=O)[C@H](Cc1ccccc1)NC(C)=O	> 300 nM	10%	> 300 nM
CC(C)=CCC/C(C)=C/C[C@]12C[C@@H](C(=O)N[C@@H](C)C(=O)O)N(C(=O)[C@@H](N)CC(C)C)[C@H]1Nc1ccccc12	> 300 nM	20%	> 300 nM
CC(C)=CCC/C(C)=C/C[C@]12C[C@H]3C(=O)N[C@@H](Cc4ccccc4)C(=O)N3[C@H]1Nc1ccccc12	> 300 nM	5%	> 300 nM

The remaining lines, values ahead:

EC50 [1]	Emax [2]	EC25 [3]	SMILES
> 300 nM	40%	200 nM	CC[C@H](C)[C@H](NC(=O)CN)C(=O)N[C@@H](Cc1ccccc1)C(=O)N1[C@H]2Nc3ccccc3[C@@]2(CCC(C)CCCC(C)C)C[C@H]1C(=O)N[C@@H](CCC(=O)O)C(=O)N[C@@H](CCC(N)=O)C(=O)O (mixture of isomers)
> 300 nM	5%	> 300 nM	CC(C)=CCC/C(C)=C/C[C@]12C[C@@H](C(=O)N[C@@H](C)C(=O)O)N(C(=O)[C@@H](N)CC(N)=O)[C@H]1Nc1ccccc12
> 300 nM	5%	> 300 nM	CC(C)=CCC/C(C)=C/C[C@]12C[C@@H](C(=O)N[C@@H](C)C(=O)O)N(C(=O)[C@@H]3CCCN3)[C@H]1Nc1ccccc12
> 300 nM	0%	> 300 nM	CC[C@H](C)[C@H](NC(=O)CN)C(=O)N[C@@H](Cc1ccccc1)C(=O)N1[C@H]2Nc3ccccc3[C@@]2(CC=C(C)C)C[C@H]1C(=O)N[C@@H](CCC(=O)O)C(=O)N[C@@H](CCC(N)=O)C(=O)O (H-GIF[X3]EQ-OH)
> 300 nM	15%	> 300 nM	CC(C)=CCC/C(C)=C/C[C@]12C[C@@H](C(=O)N[C@@H](C)C(=O)O)N(C(=O)[C@@H](N)Cc3cc4ccccc4[nH]3)[C@H]1Nc1ccccc12
> 300 nM	35%	20 nM	CC[C@H](C)[C@H](N)C(=O)N1[C@H]2Nc3ccccc3[C@@]2(C/C=C(\C)CCC=C(C)C)C[C@H]1C(=O)N[C@@H](C)C(=O)O
> 300 nM	20%	> 300 nM	CC(C)=CCC/C(C)=C/C[C@]12C[C@@H](C(=O)N[C@@H](CCC(=O)O)C(=O)O)N(C(=O)[C@H](C)N)[C@H]1Nc1ccccc12
1 nM		0.3 nM	CC[C@H](C)[C@H](NC(=O)CN)C(=O)N[C@@H](Cc1ccccc1)C(=O)N1[C@H]2Nc3ccccc3[C@@]2(C/C=C(\C)CCC=C(C)C)C[C@H]1C(=O)N[C@@H](CCC(=O)O)C(=O)N[C@@H](CCC(N)=O)C(=O)O (H-GIF[X4]EQ-OH)
20 nM	60%	8 nM	CC(C)=CCC/C(C)=C/C[C@]12C[C@@H](C(=O)N[C@@H](CCC(=O)O)C(=O)O)N(C(=O)C(N)Cc3ccccc3)[C@H]1Nc1ccccc12 (single isomer, unassigned)
20 nM	75%	2 nM	CC[C@H](C)[C@H](NC(=O)CN)C(=O)N[C@@H](Cc1ccccc1)C(=O)N1[C@H]2Nc3ccccc3[C@@]2(C/C=C(\C)CCCC(C)C)C[C@H]1C(=O)N[C@@H](CCC(=O)O)C(=O)N[C@@H](CCC(N)=O)C(=O)O (H-GIF[X1]EQ-OH)
60 nM	70%	3 nM	CC(C)=CCC/C(C)=C/C[C@]12C[C@@H](C(=O)N[C@@H](C)C(=O)O)N(C(=O)C(N)Cc3ccccc3)[C@H]1Nc1ccccc12 (single isomer, unassigned)
